Measured values as given in PMC6199744, “Development of Chemical Proteomics for the Folateome and Analysis of the Kinetoplastid Folateome” (ACS Infectious Diseases, 2018).
Read-outs that look alike come from different tables or passages of the source.

Assays:
Assay type in all cases: binding
[1] = biological target: T1, HeLa cell extract proteins (Homo sapiens, UniProt Q13535)
T1 construct: endogenous in cells; host or cells: HeLa cell extract

[2] = biological target: T2, HeLa cell extract proteins (Homo sapiens, UniProt Q9BTT0)
T2 construct: endogenous in cells; host or cells: HeLa cell extract
T2 sequence (Q9BTT0 whole entry): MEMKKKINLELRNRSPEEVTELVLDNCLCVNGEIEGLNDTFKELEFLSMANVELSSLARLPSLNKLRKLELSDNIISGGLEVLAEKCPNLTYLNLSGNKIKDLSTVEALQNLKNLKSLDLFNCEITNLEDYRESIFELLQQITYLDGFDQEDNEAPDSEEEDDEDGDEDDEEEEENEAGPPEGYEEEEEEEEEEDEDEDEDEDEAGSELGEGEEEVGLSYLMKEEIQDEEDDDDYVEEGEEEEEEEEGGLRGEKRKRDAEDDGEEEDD

[3] = biological target: T3, HeLa cell extract proteins (Homo sapiens, UniProt O00483); conditions: captured protein NDUFA4; HeLa
T3 construct: endogenous in cells; host or cells: HeLa cell extract
T3 sequence (O00483 whole entry): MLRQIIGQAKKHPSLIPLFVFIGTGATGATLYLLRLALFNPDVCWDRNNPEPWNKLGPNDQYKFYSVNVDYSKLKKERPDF

[4] = biological target: T4, HeLa cell extract proteins (Homo sapiens, UniProt P46976); conditions: protein GYG1; HeLa
T4 construct: endogenous in cells; host or cells: HeLa cell extract
T4 sequence (P46976 1-350): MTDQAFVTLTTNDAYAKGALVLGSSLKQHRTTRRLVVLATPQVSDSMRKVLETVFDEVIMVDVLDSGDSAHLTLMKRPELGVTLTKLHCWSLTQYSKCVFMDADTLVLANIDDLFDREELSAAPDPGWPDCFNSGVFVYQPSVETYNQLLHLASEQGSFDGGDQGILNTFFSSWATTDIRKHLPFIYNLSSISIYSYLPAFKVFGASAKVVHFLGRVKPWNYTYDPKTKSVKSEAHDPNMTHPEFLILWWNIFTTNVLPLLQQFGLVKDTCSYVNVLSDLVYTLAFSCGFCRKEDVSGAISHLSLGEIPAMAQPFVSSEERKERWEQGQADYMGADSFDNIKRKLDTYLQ

[5] = biological target: T5, HeLa cell extract proteins (Homo sapiens, UniProt P48556); conditions: captured protein PSMD8; HeLa
T5 construct: endogenous in cells; host or cells: HeLa cell extract
T5 sequence (P48556 1-350): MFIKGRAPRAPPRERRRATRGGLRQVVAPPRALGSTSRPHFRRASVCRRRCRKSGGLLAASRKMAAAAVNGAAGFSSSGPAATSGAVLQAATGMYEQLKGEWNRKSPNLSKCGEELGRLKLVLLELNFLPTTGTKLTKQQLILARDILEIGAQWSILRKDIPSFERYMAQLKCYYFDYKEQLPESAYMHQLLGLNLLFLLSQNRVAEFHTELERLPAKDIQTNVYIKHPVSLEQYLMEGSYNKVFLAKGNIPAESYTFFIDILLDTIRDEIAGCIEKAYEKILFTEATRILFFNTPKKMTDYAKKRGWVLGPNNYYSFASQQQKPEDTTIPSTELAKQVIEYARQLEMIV

[6] = biological target: T6, HeLa cell extract proteins (Homo sapiens, UniProt Q13501); conditions: HeLa; protein SQSTM1
T6 construct: endogenous in cells; host or cells: HeLa cell extract
T6 sequence (Q13501 whole entry): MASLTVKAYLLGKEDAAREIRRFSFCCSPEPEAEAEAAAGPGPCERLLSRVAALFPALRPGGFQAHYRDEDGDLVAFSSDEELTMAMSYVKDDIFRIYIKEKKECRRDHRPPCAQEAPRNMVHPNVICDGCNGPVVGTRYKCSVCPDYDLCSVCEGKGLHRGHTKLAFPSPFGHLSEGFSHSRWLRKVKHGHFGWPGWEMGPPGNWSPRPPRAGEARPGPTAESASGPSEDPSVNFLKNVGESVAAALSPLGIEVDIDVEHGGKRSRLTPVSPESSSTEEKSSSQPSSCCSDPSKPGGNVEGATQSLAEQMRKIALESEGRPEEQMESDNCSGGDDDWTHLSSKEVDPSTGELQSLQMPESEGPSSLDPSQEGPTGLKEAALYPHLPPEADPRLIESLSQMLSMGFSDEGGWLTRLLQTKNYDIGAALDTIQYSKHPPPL

[7] = biological target: T7, HeLa cell extract proteins (Homo sapiens, UniProt Q8TEQ6); conditions: protein GEMIN5; HeLa
T7 construct: endogenous in cells; host or cells: HeLa cell extract
T7 sequence (Q8TEQ6 whole entry): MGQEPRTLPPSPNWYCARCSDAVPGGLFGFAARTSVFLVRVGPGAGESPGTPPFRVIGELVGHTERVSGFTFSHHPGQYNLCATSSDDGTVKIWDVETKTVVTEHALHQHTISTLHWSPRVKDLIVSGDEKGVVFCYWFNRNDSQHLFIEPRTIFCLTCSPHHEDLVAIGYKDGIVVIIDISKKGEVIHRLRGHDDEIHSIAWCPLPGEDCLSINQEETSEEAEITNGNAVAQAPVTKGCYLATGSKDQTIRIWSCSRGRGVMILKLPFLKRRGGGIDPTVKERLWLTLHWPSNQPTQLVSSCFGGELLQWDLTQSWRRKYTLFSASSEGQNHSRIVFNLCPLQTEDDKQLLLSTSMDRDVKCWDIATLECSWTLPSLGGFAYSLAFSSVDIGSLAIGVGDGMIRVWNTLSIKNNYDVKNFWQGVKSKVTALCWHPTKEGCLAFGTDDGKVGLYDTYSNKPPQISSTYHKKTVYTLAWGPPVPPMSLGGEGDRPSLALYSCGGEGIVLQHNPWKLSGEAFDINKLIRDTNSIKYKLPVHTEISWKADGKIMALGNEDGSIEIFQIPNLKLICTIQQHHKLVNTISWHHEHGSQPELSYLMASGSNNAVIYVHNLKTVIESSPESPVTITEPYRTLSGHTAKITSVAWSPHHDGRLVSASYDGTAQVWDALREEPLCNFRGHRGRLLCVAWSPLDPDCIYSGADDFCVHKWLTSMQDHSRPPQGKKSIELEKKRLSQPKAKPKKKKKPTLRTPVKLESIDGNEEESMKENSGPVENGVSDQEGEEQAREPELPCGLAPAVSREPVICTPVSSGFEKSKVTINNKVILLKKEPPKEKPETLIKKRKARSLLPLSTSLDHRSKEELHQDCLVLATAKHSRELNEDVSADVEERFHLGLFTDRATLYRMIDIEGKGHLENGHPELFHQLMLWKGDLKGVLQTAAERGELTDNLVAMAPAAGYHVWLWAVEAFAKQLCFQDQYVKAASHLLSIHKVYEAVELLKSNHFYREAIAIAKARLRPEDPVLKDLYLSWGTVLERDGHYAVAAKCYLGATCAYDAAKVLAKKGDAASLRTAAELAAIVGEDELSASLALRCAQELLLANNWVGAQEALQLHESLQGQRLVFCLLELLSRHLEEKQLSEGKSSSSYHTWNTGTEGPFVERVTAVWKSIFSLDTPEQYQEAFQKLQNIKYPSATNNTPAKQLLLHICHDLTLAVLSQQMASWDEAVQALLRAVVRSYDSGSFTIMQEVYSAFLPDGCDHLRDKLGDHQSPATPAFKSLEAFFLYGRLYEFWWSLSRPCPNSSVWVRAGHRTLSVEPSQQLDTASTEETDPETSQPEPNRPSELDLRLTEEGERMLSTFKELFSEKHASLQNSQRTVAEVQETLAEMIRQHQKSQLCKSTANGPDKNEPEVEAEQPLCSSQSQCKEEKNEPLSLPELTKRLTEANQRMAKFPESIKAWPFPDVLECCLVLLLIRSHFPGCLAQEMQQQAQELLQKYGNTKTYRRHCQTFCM

[8] = biological target: T8, HeLa cell extract proteins (Homo sapiens, UniProt Q9NQC3); conditions: HeLa; protein RTN4
T8 construct: endogenous in cells; host or cells: HeLa cell extract
T8 sequence (Q9NQC3 1-1192): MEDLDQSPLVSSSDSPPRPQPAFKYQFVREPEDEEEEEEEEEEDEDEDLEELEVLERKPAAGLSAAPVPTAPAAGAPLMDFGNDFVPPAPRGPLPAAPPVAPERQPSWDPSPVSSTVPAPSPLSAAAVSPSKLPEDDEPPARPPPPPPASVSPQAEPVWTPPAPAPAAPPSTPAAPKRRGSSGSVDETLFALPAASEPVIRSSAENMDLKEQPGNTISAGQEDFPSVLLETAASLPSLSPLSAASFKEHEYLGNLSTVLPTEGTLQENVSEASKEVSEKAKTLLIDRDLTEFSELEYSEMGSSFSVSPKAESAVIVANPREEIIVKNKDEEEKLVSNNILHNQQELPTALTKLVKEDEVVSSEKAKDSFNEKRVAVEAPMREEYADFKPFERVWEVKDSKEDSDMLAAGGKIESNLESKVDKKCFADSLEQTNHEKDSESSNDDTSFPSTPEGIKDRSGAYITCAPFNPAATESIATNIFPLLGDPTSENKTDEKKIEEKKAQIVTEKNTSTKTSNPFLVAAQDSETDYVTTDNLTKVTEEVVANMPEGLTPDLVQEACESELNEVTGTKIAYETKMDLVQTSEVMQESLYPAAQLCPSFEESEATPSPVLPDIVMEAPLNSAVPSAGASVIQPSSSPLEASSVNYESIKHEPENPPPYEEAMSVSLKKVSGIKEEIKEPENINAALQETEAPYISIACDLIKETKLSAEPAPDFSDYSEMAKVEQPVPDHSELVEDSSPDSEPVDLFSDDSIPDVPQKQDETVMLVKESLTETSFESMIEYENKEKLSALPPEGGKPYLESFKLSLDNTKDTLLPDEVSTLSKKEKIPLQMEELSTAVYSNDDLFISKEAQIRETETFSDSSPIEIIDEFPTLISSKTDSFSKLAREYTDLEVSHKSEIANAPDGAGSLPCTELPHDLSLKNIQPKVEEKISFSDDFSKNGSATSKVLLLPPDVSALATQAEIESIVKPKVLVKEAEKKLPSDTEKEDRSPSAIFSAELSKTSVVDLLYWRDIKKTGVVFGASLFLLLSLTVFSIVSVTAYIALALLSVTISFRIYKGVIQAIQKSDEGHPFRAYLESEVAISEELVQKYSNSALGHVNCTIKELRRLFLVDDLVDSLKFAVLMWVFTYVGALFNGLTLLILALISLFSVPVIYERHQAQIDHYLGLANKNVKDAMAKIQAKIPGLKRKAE

T1 sequence (Q13535 whole entry): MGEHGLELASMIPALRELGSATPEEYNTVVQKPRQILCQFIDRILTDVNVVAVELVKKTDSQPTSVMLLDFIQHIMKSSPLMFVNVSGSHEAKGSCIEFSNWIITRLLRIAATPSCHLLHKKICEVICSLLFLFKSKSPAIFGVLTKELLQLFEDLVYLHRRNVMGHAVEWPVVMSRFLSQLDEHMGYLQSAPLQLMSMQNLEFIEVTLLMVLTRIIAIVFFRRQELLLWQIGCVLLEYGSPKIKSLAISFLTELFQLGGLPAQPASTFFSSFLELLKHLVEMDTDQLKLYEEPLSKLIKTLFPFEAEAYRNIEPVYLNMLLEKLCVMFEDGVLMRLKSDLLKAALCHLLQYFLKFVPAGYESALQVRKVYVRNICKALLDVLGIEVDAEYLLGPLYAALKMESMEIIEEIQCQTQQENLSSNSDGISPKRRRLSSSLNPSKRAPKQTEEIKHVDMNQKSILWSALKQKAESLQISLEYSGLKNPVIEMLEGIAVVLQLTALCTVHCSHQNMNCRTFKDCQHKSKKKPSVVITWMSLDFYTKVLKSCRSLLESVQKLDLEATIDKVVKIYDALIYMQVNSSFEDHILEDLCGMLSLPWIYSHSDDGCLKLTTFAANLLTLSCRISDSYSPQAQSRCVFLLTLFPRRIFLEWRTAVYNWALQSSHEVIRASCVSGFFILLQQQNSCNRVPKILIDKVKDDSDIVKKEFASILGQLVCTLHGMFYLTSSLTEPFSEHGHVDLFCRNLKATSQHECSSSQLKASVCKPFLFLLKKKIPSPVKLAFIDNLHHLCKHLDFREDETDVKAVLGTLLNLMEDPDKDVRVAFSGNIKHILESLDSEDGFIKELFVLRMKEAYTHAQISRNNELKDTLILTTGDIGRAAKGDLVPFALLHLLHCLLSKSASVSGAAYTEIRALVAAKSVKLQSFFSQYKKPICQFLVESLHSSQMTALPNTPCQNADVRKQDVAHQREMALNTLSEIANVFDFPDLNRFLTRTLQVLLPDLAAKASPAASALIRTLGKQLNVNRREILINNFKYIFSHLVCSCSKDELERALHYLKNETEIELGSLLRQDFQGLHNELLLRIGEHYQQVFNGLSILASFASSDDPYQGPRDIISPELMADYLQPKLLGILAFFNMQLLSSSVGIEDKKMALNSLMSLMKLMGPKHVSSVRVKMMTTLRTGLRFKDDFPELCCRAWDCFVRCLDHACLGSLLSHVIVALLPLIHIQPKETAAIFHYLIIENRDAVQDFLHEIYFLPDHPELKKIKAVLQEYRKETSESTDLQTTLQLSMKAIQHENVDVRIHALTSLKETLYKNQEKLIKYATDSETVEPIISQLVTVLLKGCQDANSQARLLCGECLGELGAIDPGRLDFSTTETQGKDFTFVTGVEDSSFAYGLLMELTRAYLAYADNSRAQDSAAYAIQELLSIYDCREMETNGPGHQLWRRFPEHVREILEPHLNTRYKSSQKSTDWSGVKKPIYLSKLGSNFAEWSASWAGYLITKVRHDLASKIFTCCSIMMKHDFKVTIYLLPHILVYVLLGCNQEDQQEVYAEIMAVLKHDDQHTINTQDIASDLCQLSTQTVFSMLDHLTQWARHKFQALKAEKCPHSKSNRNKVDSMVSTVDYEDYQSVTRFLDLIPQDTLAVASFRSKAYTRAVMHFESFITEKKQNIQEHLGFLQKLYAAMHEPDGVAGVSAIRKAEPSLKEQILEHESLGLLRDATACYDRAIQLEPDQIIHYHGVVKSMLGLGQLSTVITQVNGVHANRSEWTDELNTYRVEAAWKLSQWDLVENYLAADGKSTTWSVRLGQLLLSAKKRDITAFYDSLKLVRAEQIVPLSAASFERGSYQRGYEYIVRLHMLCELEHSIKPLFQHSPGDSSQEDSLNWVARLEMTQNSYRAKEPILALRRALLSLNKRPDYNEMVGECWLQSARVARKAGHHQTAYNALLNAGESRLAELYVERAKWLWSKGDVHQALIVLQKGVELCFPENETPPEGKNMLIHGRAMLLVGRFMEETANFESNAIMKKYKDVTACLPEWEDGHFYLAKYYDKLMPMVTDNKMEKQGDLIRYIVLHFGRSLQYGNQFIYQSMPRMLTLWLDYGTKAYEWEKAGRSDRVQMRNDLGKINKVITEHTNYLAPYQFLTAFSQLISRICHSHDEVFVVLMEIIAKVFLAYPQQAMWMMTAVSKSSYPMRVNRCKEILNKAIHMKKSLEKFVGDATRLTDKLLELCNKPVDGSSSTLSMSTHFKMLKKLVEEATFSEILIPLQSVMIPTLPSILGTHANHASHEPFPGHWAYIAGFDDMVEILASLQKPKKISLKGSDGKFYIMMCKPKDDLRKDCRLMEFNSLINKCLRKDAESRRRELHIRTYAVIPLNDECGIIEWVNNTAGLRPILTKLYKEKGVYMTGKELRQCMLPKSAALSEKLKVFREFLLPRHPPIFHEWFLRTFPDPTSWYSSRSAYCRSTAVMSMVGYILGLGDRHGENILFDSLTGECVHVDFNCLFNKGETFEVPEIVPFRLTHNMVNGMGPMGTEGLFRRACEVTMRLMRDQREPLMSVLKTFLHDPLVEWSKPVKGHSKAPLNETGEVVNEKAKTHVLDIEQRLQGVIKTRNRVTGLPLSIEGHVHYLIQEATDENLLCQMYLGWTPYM

| Compound | fold changes relative to vehicle control ([1]; protein ATR, HeLa) | fold changes relative to vehicle control ([2]; HeLa, protein ANP32E) | fold changes relative to vehicle control [1] | fold changes relative to vehicle control [2] | fold changes relative to vehicle control [3] | fold changes relative to vehicle control [4] | fold changes relative to vehicle control [5] | fold changes relative to vehicle control [6] | fold changes relative to vehicle control [7] | fold changes relative to vehicle control [8] |
| --- | --- | --- | --- | --- | --- | --- | --- | --- | --- | --- |
| Nc1nc2c(c(=O)[nH]1)N(C=O)C(CNc1ccc(C(=O)N[C@@H](CCC(=O)O)C(=O)O)cc1)CN2 (some centres unmarked) [LEU, leucovorin] | 0.66 | 0.89 | – | – | – | – | – | – | – | – |
| Nc1nc2[nH]cc(CCc3ccc(C(=O)N[C@@H](CCC(=O)O)C(=O)O)cc3)c2c(=O)[nH]1 [PTX, pemetrexed] | – | – | 0.79 | 0.76 | – | – | – | – | – | – |
| CCCCCCOc1ccc(Cc2cnc(N)nc2N)cc1 [compound 1] | – | – | – | – | 0.8 | 1.09 | 0.89 | 1.3 | 0.99 | 0.39 |
| CCCCCCOc1cccc(Cc2cnc(N)nc2N)c1 [compound 2] | – | – | – | – | 1.17 | 1.31 | 1.08 | 0.96 | 1.12 | 1.21 |
| Nc1nc2cccc(-c3ccccc3)c2n1Cc1ccc(Cl)c(Cl)c1 [compound 3] | – | – | – | – | 0.82 | 0.95 | 0.78 | 1.2 | 1.61 | 1 |
| NCCOCCOCC(=O)Nc1nc2ncc(CNc3ccc(C(=O)NC(CCC(=O)O)C(=O)O)cc3)nc2c(=O)[nH]1 (centres unmarked) [compound 6] | 0.69 | 0.91 | – | – | – | – | – | – | – | – |
| NCCCNc1ccc(C(=O)NC(CCC(=O)O)C(=O)O)cc1 (centres unmarked) [compound 7] | 0.54 | 0.72 | – | – | – | – | – | – | – | – |
